Values quoted from earlier work in the PKSmart pharmacokinetics tables (Seal et al. 2025).

Key:
[1] = Lombardo, Berellini, Obach 2018, Drug Metab Dispos 46:1466, doi 10.1124/dmd.118.082966; settings: human; for MRT / Vd / clearance / half-life: in vivo, iv; for fraction unbound: plasma
[2] = Lombardo et al. 2013, J Clin Pharmacol 53:178, doi 10.1177/0091270012440282; settings: for Vd / clearance: in vivo, iv; for fraction unbound: plasma

CC(C)N(CCC(C(N)=O)(c1ccccc1)c1ccccn1)C(C)C (centres undefined)
MRT [1]: 9.6 h | Vd [1]: 0.52 L/kg | clearance [1]: 0.9 mL/min/kg | half-life [1]: 420 min | fraction unbound [1]: 0.16 | Vd ([2]; dog): 1.27 L/kg | clearance ([2]; dog): 9.87 mL/min/kg | clearance ([2]; rat): 34 mL/min/kg

NC(C(=O)O)[C@@H]1CC(Cl)=NO1 (some centres undefined)
MRT [1]: 12 h | Vd [1]: 0.5 L/kg | clearance [1]: 0.69 mL/min/kg | half-life [1]: 594 min | Vd ([2]; dog): 0.58 L/kg | clearance ([2]; dog): 1.4 mL/min/kg | Vd ([2]; monkey): 0.61 L/kg | clearance ([2]; monkey): 2.3 mL/min/kg | Vd ([2]; rat): 0.74 L/kg | clearance ([2]; rat): 6.4 mL/min/kg

O=C(O)c1cc(-c2ccc(F)cc2F)ccc1O
MRT [1]: 14 h | Vd [1]: 0.097 L/kg | clearance [1]: 0.1 mL/min/kg | half-life [1]: 600 min | Vd ([2]; rat): 0.15 L/kg | clearance ([2]; rat): 1.52 mL/min/kg

COc1cccc([C@@]2(O)CCCC[C@@H]2CN(C)C)c1
MRT [1]: 7.2 h | Vd [1]: 2.8 L/kg | clearance [1]: 6.5 mL/min/kg | half-life [1]: 348 min | Vd ([2]; dog): 3.01 L/kg | clearance ([2]; dog): 54.6 mL/min/kg | fraction unbound ([2]; dog): 0.745 | Vd ([2]; rat): 3.86 L/kg | clearance ([2]; rat): 63.5 mL/min/kg | fraction unbound ([2]; rat): 0.75

CO[C@@]1(NC(=O)Cc2cccs2)C(=O)N2C(C(=O)O)=C(COC(N)=O)CS[C@@H]21
MRT [1]: 0.79 h | Vd [1]: 0.17 L/kg | clearance [1]: 3.6 mL/min/kg | half-life [1]: 48.6 min | fraction unbound [1]: 0.73 | Vd ([2]; dog): 0.6 L/kg | clearance ([2]; dog): 11 mL/min/kg

CC(C)(C)NCC(O)c1ccc(O)c(CO)c1 (centres undefined)
MRT [1]: 4.1 h | Vd [1]: 1.9 L/kg | Vd ([2]; dog): 3.9 L/kg | fraction unbound ([2]; dog): 0.05 | Vd ([2]; rat): 30 L/kg | fraction unbound ([2]; rat): 0.05

CC#CCC(C)[C@H](O)/C=C/[C@@H]1[C@H]2C/C(=C/CCCC(=O)O)C[C@H]2C[C@H]1O (some centres undefined)
Vd [1]: 0.37 L/kg | clearance [1]: 16 mL/min/kg | half-life [1]: 34.2 min | fraction unbound [1]: 0.4 | Vd ([2]; dog): 0.93 L/kg | clearance ([2]; dog): 67.2 mL/min/kg | Vd ([2]; rat): 0.79 L/kg | clearance ([2]; rat): 32.4 mL/min/kg

CCOc1ccccc1OCCN[C@H](C)Cc1ccc(OC)c(S(N)(=O)=O)c1
MRT [1]: 5.6 h | Vd [1]: 0.21 L/kg | clearance [1]: 0.62 mL/min/kg | half-life [1]: 408 min | Vd ([2]; dog): 1.74 L/kg | clearance ([2]; dog): 19.3 mL/min/kg | fraction unbound ([2]; dog): 0.1 | Vd ([2]; rat): 3.25 L/kg | clearance ([2]; rat): 82.2 mL/min/kg | fraction unbound ([2]; rat): 0.24

CCCCCN(CCCOC)C(=O)C(CCC(=O)O)NC(=O)c1ccc(Cl)c(Cl)c1 (centres undefined)
MRT [1]: 2.4 h | Vd [1]: 0.21 L/kg | clearance [1]: 2.35 mL/min/kg | half-life [1]: 192 min | Vd ([2]; dog): 0.34 L/kg | clearance ([2]; dog): 30.7 mL/min/kg | fraction unbound ([2]; dog): 0.021 | Vd ([2]; rat): 0.98 L/kg | clearance ([2]; rat): 6.01 mL/min/kg | fraction unbound ([2]; rat): 0.0093

CC1COc2c(N3CCN(C)CC3)c(F)cc3c(=O)c(C(=O)O)cn1c23 (centres undefined)
MRT [1]: 11 h | Vd [1]: 1.6 L/kg | clearance [1]: 2.5 mL/min/kg | half-life [1]: 534 min | Vd ([2]; dog): 1.3 L/kg | clearance ([2]; dog): 23.2 mL/min/kg | fraction unbound ([2]; dog): 0.51 | fraction unbound ([2]; monkey): 0.71 | Vd ([2]; rat): 1.42 L/kg | clearance ([2]; rat): 13.2 mL/min/kg

C[C@@H]1CN(C2CCC(C#N)(c3ccc(F)cc3)CC2)CC[C@]1(C(=O)O)c1ccccc1 (some centres undefined)
MRT [1]: 45.3 h | Vd [1]: 1.17 L/kg | clearance [1]: 0.43 mL/min/kg | half-life [1]: 1980 min | fraction unbound [1]: 0.453 | Vd ([2]; rat): 1.36 L/kg | clearance ([2]; rat): 27 mL/min/kg | fraction unbound ([2]; rat): 0.46

Cc1cn([C@H]2C[C@H](N=[N+]=[N-])[C@@H](CO)O2)c(=O)[nH]c1=O
MRT [1]: 1.2 h | Vd [1]: 1.8 L/kg | half-life [1]: 78 min | fraction unbound [1]: 0.8 | Vd ([2]; dog): 1 L/kg | clearance ([2]; dog): 14 mL/min/kg | fraction unbound ([2]; dog): 0.827

CCN(CCO)CCCC(C)Nc1ccnc2cc(Cl)ccc12 (centres undefined)
MRT [1]: 1300 h | Vd [1]: 700 L/kg | clearance [1]: 11 mL/min/kg | half-life [1]: 51000 min | fraction unbound [1]: 0.57 | Vd ([2]; rat): 14.6 L/kg | clearance ([2]; rat): 28.2 mL/min/kg | fraction unbound ([2]; rat): 0.62

C[C@]12CC[C@@H]3c4ccc(O)cc4CC[C@H]3[C@@H]1CC[C@@H]2O
MRT [1]: 0.7 h | Vd [1]: 1.2 L/kg | clearance [1]: 30 mL/min/kg | half-life [1]: 102 min | Vd ([2]; rat): 5.9 L/kg | clearance ([2]; rat): 69 mL/min/kg | fraction unbound ([2]; rat): 0.053

CN[C@@H](C)Cc1ccccc1
MRT [1]: 16 h | Vd [1]: 4.3 L/kg | clearance [1]: 4.4 mL/min/kg | half-life [1]: 720 min | fraction unbound [1]: 0.85 | Vd ([2]; rat): 9 L/kg | clearance ([2]; rat): 126 mL/min/kg | fraction unbound ([2]; rat): 0.92

CC(C)NCC(O)COc1ccc(CCOCC2CC2)cc1 (centres undefined)
MRT [1]: 24 h | Vd [1]: 4.8 L/kg | clearance [1]: 3.4 mL/min/kg | half-life [1]: 1020 min | Vd ([2]; dog): 8.2 L/kg | clearance ([2]; dog): 20 mL/min/kg | fraction unbound ([2]; dog): 0.47 | Vd ([2]; rat): 12 L/kg | clearance ([2]; rat): 154 mL/min/kg | fraction unbound ([2]; rat): 0.54

OCCN1CCN(CCCN2c3ccccc3Sc3ccc(C(F)(F)F)cc32)CC1
MRT [1]: 5 h | Vd [1]: 2.9 L/kg | clearance [1]: 9.7 mL/min/kg | half-life [1]: 738 min | fraction unbound [1]: 0.04 | Vd ([2]; dog): 5.5 L/kg | clearance ([2]; dog): 15.4 mL/min/kg

CNCCCN1c2ccccc2CCc2ccccc21
MRT [1]: 23 h | Vd [1]: 15 L/kg | half-life [1]: 1320 min | Vd ([2]; rat): 19.8 L/kg

CON=C(C(=O)NC1C(=O)N2C(C(=O)O)=CCS[C@H]12)c1csc(N)n1 (some centres undefined)
MRT [1]: 1.6 h | Vd [1]: 0.2 L/kg | clearance [1]: 2.1 mL/min/kg | half-life [1]: 90 min | fraction unbound [1]: 0.72 | Vd ([2]; dog): 0.27 L/kg | clearance ([2]; dog): 3.25 mL/min/kg | fraction unbound ([2]; dog): 0.83 | Vd ([2]; monkey): 0.29 L/kg | clearance ([2]; monkey): 5.93 mL/min/kg | fraction unbound ([2]; monkey): 0.662 | Vd ([2]; rat): 0.54 L/kg | clearance ([2]; rat): 19.3 mL/min/kg | fraction unbound ([2]; rat): 0.7

CON=C(C(=O)NC1C(=O)N2C(C(=O)[O-])=C(C[n+]3ccc(N)n3CCO)CS[C@H]12)c1csc(N)n1 (some centres undefined)
MRT [1]: 2.78 h | Vd [1]: 0.3 L/kg | clearance [1]: 1.77 mL/min/kg | half-life [1]: 174 min | Vd ([2]; dog): 0.39 L/kg | clearance ([2]; dog): 3.5 mL/min/kg | Vd ([2]; monkey): 0.28 L/kg | clearance ([2]; monkey): 1.9 mL/min/kg | Vd ([2]; rat): 0.2 L/kg | clearance ([2]; rat): 9.6 mL/min/kg

CN1CCCC(n2nc(Cc3ccc(Cl)cc3)c3ccccc3c2=O)CC1 (centres undefined)
MRT [1]: 27 h | Vd [1]: 15 L/kg | clearance [1]: 9 mL/min/kg | half-life [1]: 1320 min | fraction unbound [1]: 0.17 | Vd ([2]; dog): 8.1 L/kg | clearance ([2]; dog): 50 mL/min/kg | fraction unbound ([2]; dog): 0.0826 | Vd ([2]; rat): 1.8 L/kg | clearance ([2]; rat): 58 mL/min/kg | fraction unbound ([2]; rat): 0.1

Nc1ncn([C@H]2C[C@H](O)[C@@H](CO)O2)c(=O)n1
MRT [1]: 0.59 h | Vd [1]: 4.6 L/kg | clearance [1]: 130 mL/min/kg | half-life [1]: 34.8 min | Vd ([2]; dog): 0.85 L/kg | clearance ([2]; dog): 8.6 mL/min/kg | Vd ([2]; rat): 1.8 L/kg | clearance ([2]; rat): 7.9 mL/min/kg

CNC(=O)c1cccc2c(Nc3ccc(NS(C)(=O)=O)cc3OC)c3cccc(C)c3nc12
MRT [1]: 1.9 h | Vd [1]: 0.3 L/kg | clearance [1]: 2.6 mL/min/kg | half-life [1]: 144 min | fraction unbound [1]: 0.0011 | Vd ([2]; dog): 1 L/kg | clearance ([2]; dog): 3.7 mL/min/kg | fraction unbound ([2]; dog): 0.0038 | Vd ([2]; rat): 2 L/kg | clearance ([2]; rat): 66 mL/min/kg | fraction unbound ([2]; rat): 0.011

CC(C)NCC(O)COc1ccc(COCCOC(C)C)cc1 (centres undefined)
Vd [1]: 2.4 L/kg | clearance [1]: 3.7 mL/min/kg | half-life [1]: 600 min | Vd ([2]; dog): 3.5 L/kg | clearance ([2]; dog): 7.9 mL/min/kg | Vd ([2]; monkey): 3 L/kg | clearance ([2]; monkey): 12 mL/min/kg | Vd ([2]; rat): 1.4 L/kg | clearance ([2]; rat): 13 mL/min/kg | fraction unbound ([2]; rat): 0.85

NC12CC3CC(CC(C3)C1)C2
MRT [1]: 23 h | Vd [1]: 6.6 L/kg | clearance [1]: 4.8 mL/min/kg | half-life [1]: 960 min | Vd ([2]; rat): 6.4 L/kg | clearance ([2]; rat): 19 mL/min/kg | fraction unbound ([2]; rat): 0.52

CCOC(=O)c1ncn2c1CN(C)C(=O)c1cc(F)ccc1-2
MRT [1]: 1 h | clearance [1]: 16 mL/min/kg | half-life [1]: 46.8 min | Vd ([2]; dog): 1 L/kg | clearance ([2]; dog): 16 mL/min/kg | fraction unbound ([2]; dog): 0.685 | Vd ([2]; rat): 1.3 L/kg | clearance ([2]; rat): 147 mL/min/kg

CC[C@@]1(O)CC(=O)OCc2c1cc1n(c2=O)Cc2cc3cc(F)c(F)cc3nc2-1
MRT [1]: 3.87 h | Vd [1]: 1.42 L/kg | clearance [1]: 8.42 mL/min/kg | half-life [1]: 186 min | fraction unbound [1]: 0.126 | Vd ([2]; dog): 2.1 L/kg | clearance ([2]; dog): 21.5 mL/min/kg | Vd ([2]; rat): 2 L/kg | clearance ([2]; rat): 23 mL/min/kg

CN(C)CCc1c[nH]c2ccc(Cn3cncn3)cc12
MRT [1]: 2 h | Vd [1]: 1.9 L/kg | clearance [1]: 16 mL/min/kg | half-life [1]: 132 min | Vd ([2]; dog): 2.5 L/kg | clearance ([2]; dog): 40 mL/min/kg | clearance ([2]; rat): 79 mL/min/kg
